In ChEMBL document CHEMBL6103579, “Antiproliferative activity of selenium-enriched coumarin derivatives on the SK-N-SH neuroblastoma cell line: Mechanistic insights” (Eur J Med Chem, 2025):
Active and inactive are the calls of the source. No cut-off for these calls is given here.

Experiments:
[1] = Antiproliferative activity against human Embryonic lung cell assessed as inhibition of cell growth incubated for 60 hrs by CCK-8 method; assay type: toxicity, cell-based
[2] = system: Neuroblastoma cell; test: Antiproliferative activity against human Neuroblastoma cell assessed as inhibition of cell growth incubated for 60 hrs by CCK-8 method; assay type: functional, cell-based

N#C[Se]CCCOc1ccc2cc(C(=O)N3N=C(c4ccc(Br)cc4)CC3c3ccc(F)cc3)c(=O)oc2c1 (configuration not stated)
Activity [1]: Non-toxic | Activity [2]: Active
